Patent US9120774B2 (University of Kansas, priority 2009, dated 2015)
Where two headings read alike, the source gives them in different places.

Columns and labels:
Format in all cases: cell-based
[1] = tested on: PC-3 (androgen independent prostate cancer cells); test: Anti-proliferation activity against PC-3 cells; settings: for IC50: Homo sapiens
Description: (§1) Upon completion of synthesis of library of compounds in Examples 23 and 24, the compounds were evaluated for anti-proliferative activity against SkBr3 (Her2 overexpressing breast cancer cells), MCF-7 (estrogen receptor positive breast cancer cells), HCT-116 (colon cancer cells characterized by wild-type p53), PL45 (pancreatic cancer cells), LNCaP (androgen sensitive prostate cancer cells) and PC-3 (androgen independent prostate cancer cells) cell lines. […] The monosubstituted benzamide variants improved activity.
Cells were maintained in a 1:1 mixture of Advanced DMEM/F12 (Gibco) supplemented with non-essential amino acids, L-glutamine (2 mM), streptomycin (500 ng/mL), penicillin (100 units/mL), and 10% FBS. Cells were grown to confluence in a humidified atmosphere (37° C., 5% CO2), seeded (2000/well, 100 μl) in 96-well plates, and allowed to attach overnight. […] […] Cells incubated in 1% DMSO were used at 100% proliferation, and values were adjusted accordingly. IC50 values were calculated from separate experiments performed in triplicate using GraphPad Prism.

[2] = tested on: SkBr3 (Her2 overexpressing breast cancer cells); test: Anti-proliferation activity against SkBr3 cells (MTS/PMS); settings: Homo sapiens, SK-BR-3
Description: (§2) Upon completion of synthesis of library of compounds in Examples 23 and 24, the compounds were evaluated for anti-proliferative activity against SkBr3 (Her2 overexpressing breast cancer cells), MCF-7 (estrogen receptor positive breast cancer cells), HCT-116 (colon cancer cells characterized by wild-type p53), PL45 (pancreatic cancer cells), LNCaP (androgen sensitive prostate cancer cells) and PC-3 (androgen independent prostate cancer cells) cell lines.
(§3) Cells were maintained in a 1:1 mixture of Advanced DMEM/F12 (Gibco) supplemented with non-essential amino acids, L-glutamine (2 mM), streptomycin (500 ng/mL), penicillin (100 units/mL), and 10% FBS. Cells were grown to confluence in a humidified atmosphere (37° C., 5% CO2), seeded (2000/well, 100 μl) in 96-well plates, and allowed to attach overnight. Compound or GDA at varying concentrations in DMSO (1% DMSO final concentration) was added, and cells were returned to the incubator for 72 hours. At 72 hours, the number of viable cells was determined using an MTS/PMS cell proliferation kit (Promega) per the manufacturer's instructions. Cells incubated in 1% DMSO were used at 100% proliferation, and values were adjusted accordingly. IC50 values were calculated from separate experiments performed in triplicate using GraphPad Prism.
as §3, with “μg/mL),” for “ng/mL),”, “μL)” for “μl)”

[3] = tested on: MCF-7 (estrogen receptor positive breast cancer cells); test: Anti-proliferation activity against MCF-7 cells (MTS/PMS); settings: for IC50: Homo sapiens, MCF7; for fold less active than the 8-methyl derivative: MCF-7 cells
Description: as §2, §3
as §3, with “μg/mL),” for “ng/mL),”, “μL)” for “μl)”

[4] = tested on: LNCaP (androgen sensitive prostate cancer cells); test: Anti-proliferation activity against LNCaP cells; settings: for IC50: Homo sapiens, LNCaP, Table 6, 72 hours, MTS/PMS, mean ± standard deviation, read-out: IC50 LnCaP
Description: as §1, §3

[5] = PC-3, Table 6, 72 hours, MTS/PMS, mean ± standard deviation, read-out: IC50 PC-3
[6] = Table 6, 72 hours, MTS/PMS, mean ± standard deviation, read-out: IC50 SKBr3
[7] = Table 6, 72 hours, MTS/PMS, mean ± standard deviation, read-out: IC50 MCF-7
[8] = Table 19, 7-oxyalkylamino and 7-oxypiperidinyl analogues, read-out: IC50, SKBr3
[9] = Table 19, 7-oxyalkylamino and 7-oxypiperidinyl analogues, read-out: IC50, MCF-7

| Structure (SMILES) | IC50 ([1]; PC-3, 24 hr., read-out: IC50) [µM] | IC50 [1, 5] [µM] | IC50 [2, 6] [µM] | IC50 [3, 7] [µM] | IC50 [4] [µM] | IC50 [2, 8] [µM] | IC50 [3, 9] [µM] | fold increase in anti-proliferation activity versus the 6-H derivative ([1]; PC-3 cells) [fold] | times less active than the corresponding 6-H ([4]; LnCaP cells) [times] | fold increased activity versus the 8-methyl derivative ([1]; PC-3 cells) [fold] | fold less active than the 8-methyl derivative [3] [fold] |
| --- | --- | --- | --- | --- | --- | --- | --- | --- | --- | --- | --- |
| COc1cccc(-c2cc(C(=O)Nc3cc4ccc(OCc5cccnc5)c(C)c4oc3=O)ccc2OC)c1 [3′,6-dimethoxy-N-(8-methyl-2-oxo-7-(pyridin-3-ylmethoxy)-2H-chromen-3-yl)-[1,1′-biphenyl]-3-carboxamide] | 3.8 | – | – | – | – | – | – | – | – | – | – |
| COc1cccc(-c2cc(C(=O)Nc3cc4cc(OC)c(O[C@@H]5OC(C)(C)[C@H](OC)[C@@H](O)[C@H]5O)c(C)c4oc3=O)ccc2OC)c1 [26a, N-(7-((2S,3R,4S,5R)-3,4-dihydroxy-5-methoxy-6,6-dimethyltetrahydro-2H-pyran-2-yloxy)-6-methoxy-8-methyl-2-oxo-2H-chromen-3-yl)-3′,6-dimethoxybiphenyl-3-carboxamide] | – | 35.4 | 58.8 ± 1.3 | > 100 | 6.6 | – | – | 2 | – | – | – |
| CCCOc1cc2cc(NC(=O)c3ccc(OC)c(-c4cccc(OC)c4)c3)c(=O)oc2c(C)c1O[C@@H]1OC(C)(C)[C@H](OC)[C@@H](O)[C@H]1O [26b, N-(7-((2S,3R,4S,5R)-3,4-dihydroxy-5-methoxy-6,6-dimethyltetrahydro-2H-pyran-2-yloxy)-8-methyl-2-oxo-6-propoxy-2H-chromen-3-yl)-3′,6-dimethoxybiphenyl-3-carboxamide] | – | 5.6 ± 5.7 | > 100 | > 100 | 3 ± 0.6 | – | – | 10 | – | – | – |
| COc1cccc(-c2cc(C(=O)Nc3cc4ccc(O[C@@H]5OC(C)(C)[C@H](OC)[C@@H](O)[C@H]5O)c(Cc5ccccc5)c4oc3=O)ccc2OC)c1 [26e, N-(8-benzyl-7-((2R,3R,4S,5R)-3,4-dihydroxy-5-methoxy-6,6-dimethyltetrahydro-2H-pyran-2-yloxy)-2-oxo-2H-chromen-3-yl)-3′,6-dimethoxybiphenyl-3-carboxamide] | – | > 100 | > 100 | > 100 | 49.7 ± 25 | – | – | – | – | – | – |
| CCCOc1cc2cc(NC(=O)c3cc4ccccc4[nH]3)c(=O)oc2c(C)c1O[C@@H]1OC(C)(C)[C@H](OC)[C@@H](O)[C@H]1O [26j, N-(7-((2S,3R,4S,5R)-3,4-dihydroxy-5-methoxy-6,6-dimethyltetrahydro-2H-pyran-2-yloxy)-8-methyl-2-oxo-6-propoxy-2H-chromen-3-yl)-1H-indole-2-carboxamide] | – | 6.2 ± 1.8 | 2.1 ± 0.8 | 2.1 ± 0.1 | 1.8 ± 0.7 | – | – | – | – | – | – |
| CO[C@@H]1[C@@H](O)[C@@H](O)[C@H](Oc2ccc3cc(NC(=O)c4cc5ccccc5[nH]4)c(=O)oc3c2-c2ccccc2)OC1(C)C [26n, N-(7-((2R,3R,4S,5R)-3,4-dihydroxy-5-methoxy-6,6-dimethyltetrahydro-2H-pyran-2-yloxy)-2-oxo-8-phenyl-2H-chromen-3-yl)-1H-indole-2-carboxamide] | – | 28 ± 12.1 | 38.8 ± 8.3 | 22.9 ± 2.1 | 27.6 ± 10.8 | – | – | – | – | – | 40 |
| COc1c(O[C@@H]2OC(C)(C)[C@H](OC)[C@@H](O)[C@H]2O)ccc2cc(NC(=O)c3cc4ccccc4[nH]3)c(=O)oc12 [26o, N-(7-((2S,3R,4S,5R)-3,4-dihydroxy-5-methoxy-6,6-dimethyltetrahydro-2H-pyran-2-yloxy)-8-methoxy-2-oxo-2H-chromen-3-yl)-1H-indole-2-carboxamide] | – | > 100 | 9.7 ± 1 | > 100 | > 100 | – | – | – | – | – | – |
| CCc1c(O[C@@H]2OC(C)(C)[C@H](OC)[C@@H](O)[C@H]2O)ccc2cc(NC(=O)c3cc4ccccc4[nH]3)c(=O)oc12 [26p, N-(7-((2R,3R,4S,5R)-3,4-dihydroxy-5-methoxy-6,6-dimethyltetrahydro-2H-pyran-2-yloxy)-8-ethyl-2-oxo-2H-chromen-3-yl)-1H-indole-2-carboxamide] | – | > 100 | 4.3 ± 3.4 | 4.3 ± 2.5 | > 100 | – | – | – | – | – | 7 |
| COc1c(OC2CCN(C)CC2)ccc2cc(NC(=O)c3ccc(OCCN(C)C)c(CC=C(C)C)c3)c(=O)oc12 [KU-459] | – | – | – | – | – | 0.29 | 0.09 | – | – | – | – |

More lines, main results first:

| IC50 ([1]; PC-3, 24 hr., read-out: IC50) [µM] | IC50 [1, 5] [µM] | IC50 [2, 6] [µM] | IC50 [3, 7] [µM] | IC50 [4] [µM] | IC50 [2, 8] [µM] | IC50 [3, 9] [µM] | Structure (SMILES) | fold increase in anti-proliferation activity versus the 6-H derivative ([1]; PC-3 cells) [fold] | times less active than the corresponding 6-H ([4]; LnCaP cells) [times] | fold increased activity versus the 8-methyl derivative ([1]; PC-3 cells) [fold] | fold less active than the 8-methyl derivative [3] [fold] |
| --- | --- | --- | --- | --- | --- | --- | --- | --- | --- | --- | --- |
| – | 60.7 ± 9.1 | 58.6 ± 5.4 | 66.9 ± 3.1 | 14.4 ± 4.2 | – | – | COc1cccc(-c2cc(C(=O)Nc3cc4cc(OC(C)C)c(O[C@@H]5OC(C)(C)[C@H](OC)[C@@H](O)[C@H]5O)c(C)c4oc3=O)ccc2OC)c1 [26c, N-(7-((2S,3R,4S,5R)-3,4-dihydroxy-5-methoxy-6,6-dimethyltetrahydro-2H-pyran-2-yloxy)-6-isopropoxy-8-methyl-2-oxo-2H-chromen-3-yl)-3′,6-dimethoxybiphenyl-3-carboxamide] | – | ~7 | – | – |
| – | > 100 | 17.3 ± 3.4 | > 100 | 1 ± 0.1 | – | – | COc1cccc(-c2cc(C(=O)Nc3cc4ccc(O[C@@H]5OC(C)(C)[C@H](OC)[C@@H](O)[C@H]5O)c(-c5ccccc5)c4oc3=O)ccc2OC)c1 [26f, N-(7-((2R,3R,4S,5R)-3,4-dihydroxy-5-methoxy-6,6-dimethyltetrahydro-2H-pyran-2-yloxy)-2-oxo-8-phenyl-2H-chromen-3-yl)-3′,6-dimethoxybiphenyl-3-carboxamide] | – | – | – | – |
| – | 1.8 ± 0.6 | 28.6 ± 1.1 | 41.7 ± 14 | 1.6 ± 0.3 | – | – | CCc1c(O[C@@H]2OC(C)(C)[C@H](OC)[C@@H](O)[C@H]2O)ccc2cc(NC(=O)c3ccc(OC)c(-c4cccc(OC)c4)c3)c(=O)oc12 [26h, N-(7-((2R,3R,4S,5R)-3,4-dihydroxy-5-methoxy-6,6-dimethyltetrahydro-2H-pyran-2-yloxy)-8-ethyl-2-oxo-2H-chromen-3-yl)-3′,6-dimethoxybiphenyl-3-carboxamide] | – | – | 10 | – |
| – | 20.2 ± 9.8 | 25.1 ± 7.7 | 24.4 ± 1.2 | 10.5 ± 0.3 | – | – | COc1cc2cc(NC(=O)c3cc4ccccc4[nH]3)c(=O)oc2c(C)c1O[C@@H]1OC(C)(C)[C@H](OC)[C@@H](O)[C@H]1O [26i, N-(7-((2S,3R,4S,5R)-3,4-dihydroxy-5-methoxy-6,6-dimethyltetrahydro-2H-pyran-2-yloxy)-6-methoxy-8-methyl-2-oxo-2H-chromen-3-yl)-1H-indole-2-carboxamide] | – | – | – | – |
| – | 11.9 | 20.7 ± 0.4 | 20 ± 1 | 11.4 | – | – | CO[C@@H]1[C@@H](O)[C@@H](O)[C@H](Oc2c(OC(C)C)cc3cc(NC(=O)c4cc5ccccc5[nH]4)c(=O)oc3c2C)OC1(C)C [26k, N-(7-((2S,3R,4S,5R)-3,4-dihydroxy-5-methoxy-6,6-dimethyltetrahydro-2H-pyran-2-yloxy)-6-isopropoxy-8-methyl-2-oxo-2H-chromen-3-yl)-1H-indole-2-carboxamide] | – | – | – | – |
| – | – | – | – | – | 0.095 | 0.15 | CC(C)=CCc1cc(C(=O)Nc2cc3ccc(OC4CCN(C)CC4)c(C)c3oc2=O)ccc1OC1CCN(C)CC1 [KU-458] | – | – | – | – |
